The source of these data is ChEMBL document CHEMBL1128638, “Probing the hydrophobic pocket of the active site of aromatase with 4-phenoxy-7 alpha-(phenylthio)-4-androstene-3,17-dione” (J Med Chem, 1995).

In the assay the target is T1, Aromatase (Homo sapiens, UniProt P11511).
T1 sequence (P11511 whole entry): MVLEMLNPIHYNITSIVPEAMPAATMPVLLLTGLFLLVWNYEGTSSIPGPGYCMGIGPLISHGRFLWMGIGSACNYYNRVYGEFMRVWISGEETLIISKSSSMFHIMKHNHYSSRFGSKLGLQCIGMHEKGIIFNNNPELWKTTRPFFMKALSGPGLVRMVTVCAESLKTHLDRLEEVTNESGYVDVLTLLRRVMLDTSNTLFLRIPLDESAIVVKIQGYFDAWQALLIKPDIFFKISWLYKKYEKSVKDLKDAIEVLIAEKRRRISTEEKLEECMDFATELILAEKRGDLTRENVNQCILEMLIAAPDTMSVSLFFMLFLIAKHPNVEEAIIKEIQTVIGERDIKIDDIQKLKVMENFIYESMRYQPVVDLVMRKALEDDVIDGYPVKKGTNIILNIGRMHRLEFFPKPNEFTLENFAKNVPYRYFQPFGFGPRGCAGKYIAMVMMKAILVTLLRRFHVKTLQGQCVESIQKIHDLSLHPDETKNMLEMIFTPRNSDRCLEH
The assay can be described thus: Inhibition of Cytochrome P450 19A1.
As a reminder, the IC50 is the concentration needed to halve the response being measured. A lower IC50 goes with inhibition by little substance. As for `C[C@]12CCC(=O)C=C1C[C@@H](Sc1ccccc1)[C@@H]1[C@@H]2CC[C@]2(C)C(=O)CC[C@@H]12`, the concentration for half-maximal inhibition (IC50) worked out at 0.65 µM. Take `CC12CCC3C(CCC4=C(Oc5ccccc5)C(=O)CCC43C)C1CCC2=O` (centres undefined): half-maximal inhibition (IC50) required 0.53 µM.

`CC12CCC3C(C1CCC2=O)[C@H](Sc1ccccc1)CC1=C(Oc2ccccc2)C(=O)CCC13C` (some centres undefined) gave a 50% inhibitory concentration (IC50) of 1.65 µM. As to `CC12CCC3C(CCC4=C(Sc5ccccc5)C(=O)CCC43C)C1CCC2=O` (centres undefined), the IC50 came to 0.19 µM.
